Test: xn = mol fraction of the nth substance listed

Cc1nccnc1C [2,3-dimethylpyrazine] + O=C=O
Fluid (supercritical or subcritical phases), Linear displacement technique
Details | mass density [kg/m3]
328.55 K, 14100 kPa, x1 = 0.291 | 857
328.55 K, 15620 kPa, x1 = 0.01 | 757
328.55 K, 16930 kPa, x1 = 0.291 | 859
329.65 K, 6660 kPa, x1 = 0.565 | 912
329.65 K, 8240 kPa, x1 = 0.565 | 914
329.65 K, 14590 kPa, x1 = 0.565 | 919
329.75 K, 12170 kPa, x1 = 0.033 | 656
329.75 K, 12970 kPa, x1 = 0.033 | 684
329.75 K, 14310 kPa, x1 = 0.033 | 713
329.75 K, 16930 kPa, x1 = 0.033 | 765
329.85 K, 12860 kPa, x1 = 0.108 | 845
329.85 K, 14590 kPa, x1 = 0.108 | 855
329.85 K, 19000 kPa, x1 = 0.108 | 879
330.35 K, 11790 kPa, x1 = 0.157 | 902
330.35 K, 14240 kPa, x1 = 0.157 | 919
330.35 K, 17550 kPa, x1 = 0.157 | 937
331.65 K, 11550 kPa, x1 = 0.086 | 645
331.65 K, 12210 kPa, x1 = 0.057 | 762
331.65 K, 12830 kPa, x1 = 0.057 | 785
331.65 K, 14030 kPa, x1 = 0.086 | 676
331.65 K, 15620 kPa, x1 = 0.086 | 689
331.65 K, 19380 kPa, x1 = 0.057 | 886
332.85 K, 12790 kPa, x1 = 0.049 | 767
332.85 K, 14620 kPa, x1 = 0.049 | 811
332.85 K, 15690 kPa, x1 = 0.049 | 834
333.95 K, 5520 kPa, x1 = 0.736 | 855
333.95 K, 12830 kPa, x1 = 0.736 | 858
333.95 K, 19520 kPa, x1 = 0.736 | 858
335.15 K, 12970 kPa, x1 = 0.027 | 605
335.15 K, 13550 kPa, x1 = 0.027 | 633
335.15 K, 14590 kPa, x1 = 0.027 | 668
338.75 K, 11790 kPa, x1 = 0.184 | 860
338.75 K, 14170 kPa, x1 = 0.184 | 874
338.75 K, 16720 kPa, x1 = 0.184 | 886
340.75 K, 12790 kPa, x1 = 0.108 | 786
340.75 K, 14030 kPa, x1 = 0.108 | 810
340.75 K, 17340 kPa, x1 = 0.108 | 837
340.75 K, 20170 kPa, x1 = 0.108 | 858
341.25 K, 10790 kPa, x1 = 0.01 | 327
341.95 K, 8900 kPa, x1 = 0.433 | 918
341.95 K, 12340 kPa, x1 = 0.433 | 926
341.95 K, 17480 kPa, x1 = 0.433 | 934
341.95 K, 23830 kPa, x1 = 0.433 | 945
343.15 K, 13410 kPa, x1 = 0.057 | 679
343.15 K, 14660 kPa, x1 = 0.057 | 719
343.15 K, 16170 kPa, x1 = 0.057 | 750
343.25 K, 14210 kPa, x1 = 0.033 | 585
343.25 K, 14930 kPa, x1 = 0.033 | 615
343.25 K, 16340 kPa, x1 = 0.033 | 657
345.05 K, 14100 kPa, x1 = 0.049 | 698
345.05 K, 15410 kPa, x1 = 0.049 | 745
345.05 K, 17240 kPa, x1 = 0.049 | 791
345.85 K, 15140 kPa, x1 = 0.086 | 626
345.85 K, 15900 kPa, x1 = 0.086 | 638
347.05 K, 11760 kPa, x1 = 0.291 | 853
347.05 K, 14070 kPa, x1 = 0.291 | 855
347.05 K, 18860 kPa, x1 = 0.291 | 857
347.65 K, 8210 kPa, x1 = 0.565 | 895
347.65 K, 11830 kPa, x1 = 0.565 | 901
347.65 K, 18520 kPa, x1 = 0.565 | 907
347.85 K, 12690 kPa, x1 = 0.184 | 828
347.85 K, 13450 kPa, x1 = 0.184 | 837
347.85 K, 15690 kPa, x1 = 0.184 | 853
348.35 K, 9900 kPa, x1 = 0.433 | 906
348.35 K, 15140 kPa, x1 = 0.433 | 917
348.35 K, 23070 kPa, x1 = 0.433 | 931
350.75 K, 14660 kPa, x1 = 0.108 | 747
350.75 K, 15690 kPa, x1 = 0.108 | 766
350.75 K, 17410 kPa, x1 = 0.108 | 790
352.25 K, 14550 kPa, x1 = 0.057 | 618
352.25 K, 16340 kPa, x1 = 0.057 | 678
352.25 K, 18760 kPa, x1 = 0.057 | 731
354.15 K, 16900 kPa, x1 = 0.157 | 847
354.15 K, 19280 kPa, x1 = 0.157 | 865
354.15 K, 25210 kPa, x1 = 0.157 | 904
355.25 K, 14550 kPa, x1 = 0.049 | 608
355.25 K, 15410 kPa, x1 = 0.049 | 652
355.25 K, 17280 kPa, x1 = 0.049 | 702
357.15 K, 13760 kPa, x1 = 0.433 | 897
357.15 K, 17310 kPa, x1 = 0.433 | 905
357.15 K, 21970 kPa, x1 = 0.433 | 914
358.65 K, 12930 kPa, x1 = 0.291 | 848
358.65 K, 15410 kPa, x1 = 0.291 | 852
358.65 K, 20590 kPa, x1 = 0.291 | 855
360.55 K, 6970 kPa, x1 = 0.736 | 846
360.55 K, 11100 kPa, x1 = 0.736 | 850
360.55 K, 17970 kPa, x1 = 0.736 | 853
362.95 K, 16930 kPa, x1 = 0.086 | 561
362.95 K, 17410 kPa, x1 = 0.086 | 574
362.95 K, 19410 kPa, x1 = 0.086 | 604
365.05 K, 16480 kPa, x1 = 0.057 | 573
365.05 K, 18310 kPa, x1 = 0.057 | 636
365.05 K, 20170 kPa, x1 = 0.057 | 679
365.05 K, 23210 kPa, x1 = 0.057 | 725
365.55 K, 19340 kPa, x1 = 0.184 | 818
365.55 K, 24520 kPa, x1 = 0.184 | 848
365.55 K, 45000 kPa, x1 = 0.184 | 900
368.45 K, 17140 kPa, x1 = 0.108 | 690
368.45 K, 19480 kPa, x1 = 0.108 | 731
368.45 K, 25100 kPa, x1 = 0.108 | 791
368.45 K, 34900 kPa, x1 = 0.108 | 848
371.85 K, 15900 kPa, x1 = 0.027 | 402
371.85 K, 17140 kPa, x1 = 0.027 | 432
373.25 K, 16720 kPa, x1 = 0.049 | 558
373.25 K, 17900 kPa, x1 = 0.049 | 605
373.25 K, 20100 kPa, x1 = 0.049 | 667
373.55 K, 9210 kPa, x1 = 0.565 | 867
373.55 K, 12380 kPa, x1 = 0.565 | 873
373.55 K, 18520 kPa, x1 = 0.565 | 883
374.25 K, 17410 kPa, x1 = 0.086 | 507
374.25 K, 18100 kPa, x1 = 0.086 | 521
374.25 K, 18900 kPa, x1 = 0.086 | 540
375.05 K, 18100 kPa, x1 = 0.033 | 466
375.05 K, 19410 kPa, x1 = 0.033 | 499
375.05 K, 20690 kPa, x1 = 0.033 | 526
375.85 K, 20590 kPa, x1 = 0.157 | 805
375.85 K, 23340 kPa, x1 = 0.157 | 829
375.85 K, 26520 kPa, x1 = 0.157 | 856
380.65 K, 12760 kPa, x1 = 0.433 | 852
380.65 K, 16100 kPa, x1 = 0.433 | 861
380.65 K, 21660 kPa, x1 = 0.433 | 876
381.45 K, 15210 kPa, x1 = 0.291 | 831
381.45 K, 15690 kPa, x1 = 0.291 | 830
381.45 K, 21340 kPa, x1 = 0.291 | 841

Liquid, linear displacement
Details | mass density [kg/m3]
328.55 K, x1 = 0.291 | 855
329.65 K, x1 = 0.565 | 909
329.75 K, x1 = 0.033 | 560
329.85 K, x1 = 0.108 | 822
330.35 K, x1 = 0.157 | 884
331.65 K, x1 = 0.057 | 719
331.65 K, x1 = 0.086 | 627
332.85 K, x1 = 0.049 | 708
333.95 K, x1 = 0.736 | 854
338.75 K, x1 = 0.184 | 852
340.75 K, x1 = 0.108 | 771
341.95 K, x1 = 0.433 | 915
343.15 K, x1 = 0.057 | 639
345.05 K, x1 = 0.049 | 638
345.85 K, x1 = 0.086 | 579
347.05 K, x1 = 0.291 | 852
347.65 K, x1 = 0.565 | 893
347.85 K, x1 = 0.184 | 826
348.35 K, x1 = 0.433 | 902
350.75 K, x1 = 0.108 | 725
354.15 K, x1 = 0.157 | 814
357.15 K, x1 = 0.433 | 886
358.65 K, x1 = 0.291 | 848
360.55 K, x1 = 0.736 | 845
362.95 K, x1 = 0.086 | 530
365.55 K, x1 = 0.184 | 774
368.45 K, x1 = 0.108 | 663
373.55 K, x1 = 0.565 | 865
374.25 K, x1 = 0.086 | 490
375.85 K, x1 = 0.157 | 764
380.65 K, x1 = 0.433 | 848
381.45 K, x1 = 0.291 | 829
